BindingDB's records for doi:10.1021/jm0502182 (Institute of Cancer Research, 2005)

Assay: Inhibitory activity against carboxypeptidase G2 from pseudomonas RS16

`O=C(O)CC[C@H](NC(=O)c1c(F)c(F)c(N(CCCl)CCCl)c(F)c1F)C(=O)O` [(S)-2-{4-[Bis-(2-chloro-ethyl)-amino]-2,3,5,6-tetrafluoro-benzoylamino}-pentanedioic acid] showed a Ki of 127 µM.

`O=C(O)CC[C@H](NC(=O)c1c(F)c(F)c(N(CCI)CCI)c(F)c1F)C(=O)O` [(S)-2-{4-[Bis-(2-iodo-ethyl)-amino]-2,3,5,6-tetrafluoro-benzoylamino}-pentanedioic acid] gave a Ki of 276 µM.
